The values that follow come from US7053088B2, “Vanilloid receptor ligands and their use in treatments” (Amgen Inc., priority 2002, dated 2006).

Structures can show the parent of a compound that is named as a salt. A value given as a limit tells only on which side of the number the result lay.

`FC(F)(F)c1ccc(-c2cc(Nc3cccc4ncccc34)ncn2)cc1` [Example 74] had a melting point of 238 to 239 °C.
Next, `FC(F)(F)c1ccc(-c2cc(Nc3ccc4[nH]ncc4c3)ncn2)cc1` [(1H-indazol-5-yl)-[6-(4-trifluoromethylphenyl)pyrimidin-4-yl]amine]: 224 to 226 °C.
As for `Cc1ccccc1Nc1cc(-c2ccc(C(F)(F)F)cc2)ncn1` [Example 64], the melting point lay within 117 to 119 °C.
`FC(F)(F)c1ccc(-c2cc(Nc3ccc4c(c3)OCCO4)ncn2)cc1` [(2,3-dihydrobenzo[1,4]dioxin-6-yl)-[6-(4-trifluoromethylphenyl)pyrimidin-4-yl]amine]: the melting point is 167 to 168 °C.
In the case of `FC(F)(F)c1ccc(-c2cc(Nc3cccc4ccc(Cl)nc34)ncn2)cc1` [(2-Chloroquinolin-8-yl)-[6-(4-trifluoromethylphenyl)pyrimidin-4-yl]amine], the melting point came out at 240 °C.
Consider `CC(C)(C)c1ccc(-c2cc(Nc3ccc4ncsc4c3)ncn2)cc1` [benzothiazol-6-yl-[6-(4-tert-butylphenyl)pyrimidin-4-yl]amine], for which the melting point was 237 °C.
The compound `Cc1ccc(Nc2cc(-c3ccc(C(F)(F)F)cc3)ncn2)cc1C` [(3,4-dimethylphenyl)-[6-(4-trifluoromethylphenyl)pyrimidin-4-yl]amine] yielded a melting point of 154 to 156 °C.
With `CC(C)(C)c1ccc(-c2cc(Nc3ccc4c(c3)CCCC4=O)ncn2)cc1` [6-[6-(4-tert-butylphenyl)pyrimidin-4-ylamino]-3,4-dihydro-2H-naphthalen-1-one], the melting point was 230 to 232 °C.
Turning to `CC(C)(C)c1ccc(-c2cc(Nc3ccc4ncsc4c3)nc(N)n2)cc1.Cl` [N^4-Benzothiazol-6-yl-6-(4-tert-butylphenyl)pyrimidine-2,4-diamine hydrochloride], the melting point lay within 220 to 222 °C.
In turn, `CC(=O)Nc1ccc(Nc2cc(-c3ccc(C(F)(F)F)cc3)ncn2)cc1` [Example 66] had a melting point of 236 to 238 °C.
Compound `CC(=O)N1CC(C)(C)c2ccc(Nc3cc(-c4ccc(C(F)(F)F)cc4)ncn3)cc21` [1-{3,3-Dimethyl-6-[6-(4-trifluoromethylphenyl)pyrimidin-4-ylamino]-2,3-dihydroindol-1-yl}ethanone] came in with a melting point of 227 to 230 °C.
The value for `CC(C)(C)c1ccc(-c2cc(Nc3ccc4c(c3)OCCO4)nc(N)n2)cc1` (as salt: hydrochloride) [[2-Amino-6-(4-tert-butylphenyl)pyrimidin-4-yl]-(2,3-dihydrobenzo[1,4]-dioxin-6-yl)amine hydrochloride] was 221 to 224 °C.
In turn, `FC(F)(F)c1ccc(-c2cc(Nc3ccc4c(n3)NCCC4)ncn2)cc1` [(5,6,7,8-tetrahydro[1,8]naphthyridin-2-yl)-[6-(4-trifluoromethylphenyl)pyrimidin-4-yl]amine] yielded a melting point of 168 °C.
On to `FC(F)(F)c1ccc(-c2cc(Nc3ccc4ncsc4c3)nnc2-c2ccccc2)cc1` [benzothiazol-6-yl-[6-phenyl-5-(4-trifluoromethylphenyl)pyridazin-3-yl]amine], for which the melting point was 272 °C.
Next, `Cc1ccc(Cl)cc1Nc1cc(-c2ccc(C(F)(F)F)cc2)ncn1` [Example 65]: 144 to 146 °C; `CC(=O)Nc1nc2c(Nc3cc(-c4ccc(C(F)(F)F)cc4)ncn3)cccc2s1` [N-{4-[6-(4-Trifluoromethylphenyl)pyrimidin-4-ylamino]benzothiazol-2-yl}acetamide]: over 250 °C; `FC(F)(F)c1ccc(-c2cc(Nc3ccc4ccccc4c3)ncn2)cc1` [Example 70]: 212 to 213 °C.
`CSc1cccc(Nc2cc(-c3ccc(C(F)(F)F)cc3)ncn2)c1` [(3-methylsulfanylphenyl)-[6-(4-trifluoromethylphenyl)pyrimidin-4-yl]amine] yielded a melting point of 130 to 132 °C.
As for `OCc1cc2cccc(Nc3cc(-c4ccc(C(F)(F)F)cc4)ncn3)c2[nH]1` [{7-[6-(4-Trifluoromethylphenyl)pyrimidin-4-ylamino]-1H-indol-2-yl}methanol], the melting point is 221 to 223 °C.
Consider `COc1ccc(-c2nnc(Nc3ccc4cccnc4c3)cc2-c2ccc(C(F)(F)F)cc2)cc1` [Example 89, [6-(4-Methoxyphenyl)-5-(4-trifluoromethylphenyl)pyridazin-3-yl]-[quinolin-7-yl]amine], for which the melting point lay within 215 to 217 °C.
Consider `FC(F)(F)c1ccc(-c2cc(Nc3ccc4cccnc4c3)ncn2)cc1` [Quinolyl-7-yl-[6-(4-trifluoromethylphenyl)pyrimidin-4-yl]amine], for which the melting point turned out to be 260 °C.
`FC(F)(F)c1ccc(-c2cc(Nc3ccc(Cl)c(C(F)(F)F)c3)ncn2)cc1` [(4-chloro-3-trifluoromethylphenyl)-[6-(4-trifluoromethylphenyl)pyrimidin-4-yl]amine] had a melting point of 172 to 175 °C.
The value for `Nc1ccc2cccc(Nc3cc(-c4ccc(C(F)(F)F)cc4)ncn3)c2n1` [N^8-[6-(4-Trifluoromethylphenyl)pyrimidin-4-yl]quinoline-2,8-diamine] was 211 to 213 °C.
`Cc1nc2cc(Nc3cc(-c4ccc(C(F)(F)F)cc4)ncn3)ccc2s1` [(2-methylbenzothiazol-5-yl)-[6-(4-trifluoromethylphenyl)pyrimidin-4-yl]amine]: the melting point lay within 219.5 to 220.5 °C.
The value for `FC(F)(F)c1ccc(-c2cc(Nc3ccc4scnc4c3)ncn2)cc1` [Benzothiazol-5-yl-[6-(4-trifluoromethylphenyl)pyrimidin-4-yl]amine] was 192.1 to 192.2 °C; that for `CC(C)(C)c1ccc(-c2cc(Nc3ccc4cc[nH]c4c3)ncn2)cc1` [Example 48] was 194 to 196 °C; that for `Cc1cc(O)nc2cc(Nc3cc(-c4ccc(C(F)(F)F)cc4)ncn3)ccc12.Cl` [4-Methyl-7-{[6-(4-trifluoromethylphenyl)pyrimidin-4-yl]amino}quinolin-2-ol, hydrochloride] was 373 °C (dec.).
The compound `CC(C)(C)c1ccc(-c2cc(Nc3ccc4[nH]ccc4c3)ncn2)cc1` [Example 54] gave a melting point of 238 to 240 °C.
`Nc1nc2c(Nc3cc(-c4ccc(C(F)(F)F)cc4)ncn3)cccc2s1` [N^4-[6-(4-Trifluoromethylphenyl)pyrimidin-4-yl]benzothiazole-2,4-diamine]: the melting point fell in the range of 225 to 227 °C.
Next, `Fc1ccc(-c2nnc(Nc3ccc4ncsc4c3)cc2-c2ccc(C(F)(F)F)cc2)cc1` [benzothiazol-6-yl-[6-(4-fluorophenyl)-5-(4-trifluoromethylphenyl)pyridazin-3-yl]amine]: 269 °C.
The compound `COc1ccc(Nc2cc(-c3ccc(C(F)(F)F)cc3)ncn2)cn1` [(6-methoxypyridin-3-yl)-[6-(4-trifluoromethylphenyl)pyrimidin-4-yl]amine] yielded a melting point of 123 to 127 °C.
Turning to `FC(F)(F)c1ccc(-c2cc(Nc3ccc4cc[nH]c4c3)ncn2)cc1` [Example 42], the melting point was 231 to 232 °C.
For `CS(=O)(=O)c1cccc(Nc2cc(-c3ccc(C(F)(F)F)cc3)ncn2)c1` [(3-Methanesulfonylphenyl)-[6-(4-trifluoromethylphenyl)pyrimidin-4-yl]amine], the melting point fell in the range of 204 to 205 °C.
Regarding `COc1cccc(Nc2cc(-c3ccc(C(C)(C)C)cc3)ncn2)c1` [[6-(4-tert-butylphenyl)pyrimidin-4-yl]-(3-methoxyphenyl)amine], the melting point fell in the range of 184 to 187 °C.
Next, `FC(F)(F)c1ccc(-c2cc(Nc3ccc4ncccc4c3)ncn2)cc1` [Example 72]: 268 to 269 °C; `CC(C)(C)c1ccc(-c2cc(Nc3ccc4ncsc4c3)nnc2-c2ccccc2)cc1` [Benzothiazol-6-yl-[5-(4-tert-butylphenyl)-6-phenylpyridazin-3-yl]amine]: 293 to 295 °C; `Nc1cc(C(F)(F)F)ccc1-c1cc(Nc2ccc3ncsc3c2)ncn1` [[6-(2-Amino-4-trifluoromethylphenyl)pyrimidin-4-yl]benzothiazol-6-ylamine]: 203.1 to 203.2 °C.
The value for `FC(F)(F)c1ccc(-c2cc(Nc3ccc4ncsc4c3)nnc2-c2ccc(C(F)(F)F)cc2)cc1` [benzothiazol-6-yl-[5,6-bis-(4-trifluoromethylphenyl)pyridazin-3-yl]amine] was 243 °C.
For `FC(F)(F)c1ccc(-c2cc(Nc3ccc(Cl)cc3)ncn2)cc1` [(4-chlorophenyl)-[6-(4-trifluoromethylphenyl)pyrimidin-4-yl]amine], the melting point lay in the range of 193 to 196 °C.
For the compound `Cc1ccc(Nc2cc(-c3ccc(C(F)(F)F)cc3)ncn2)cc1` [Example 60], the melting point is 159 to 160 °C.
As to `CC(C)(C)c1ccc(-c2cc(Nc3cnc4ccccc4c3)ncn2)cc1` [Example 47], the melting point was 227 to 229 °C.
`FC(F)(F)c1ccc(-c2cc(Nc3cccc4ccccc34)ncn2)cc1` [Example 76] showed a melting point of 232 to 233 °C.
The value for `FC(F)(F)c1ccc(-c2cc(Nc3cccnc3Cl)ncn2)cc1` [(2-chloropyridin-3-yl)-[6-(4-trifluoromethylphenyl)pyrimidin-4-ylamine] was 134 to 135 °C; that for `COc1ccc2ccc(Nc3cc(-c4ccc(C(F)(F)F)cc4)ncn3)cc2n1` [(2-Methoxyquinolin-7-yl)-[6-(4-trifluoromethylphenyl)pyrimidin-4-yl]amine] was 199 °C.
The compound `FC(F)(F)c1ccc(-c2cc(Nc3ccc4ccc(Cl)nc4c3)ncn2)cc1` [(2-Chloroquinolin-7-yl)-[6-(4-trifluoromethylphenyl)pyrimidin-4-yl]amine] came in with a melting point of 233 °C.
As for `FC(F)(F)c1ccc(-c2cc(Nc3cccc4cccnc34)ncn2)cc1` [Example 73], the melting point is 162 to 163 °C.
On to `Oc1ccc2ccc(Nc3cc(-c4ccc(C(F)(F)F)cc4)ncn3)cc2n1` [7-[6-(4-Trifluoromethylphenyl)pyrimidin-4-ylamino]quinolin-2-ol], for which the melting point is 337 °C (dec.).
For `FC(F)(F)c1ccc(-c2cc(Nc3cccc4[nH]ccc34)ncn2)cc1` [Example 43], the melting point is 222 to 224 °C.
`CC(C)(C)c1ccc(-c2cc(Nc3ccccc3)ncn2)cc1` [[6-(4-tert-butylphenyl)pyrimidin-4-yl]phenylamine] displayed a melting point of 166 °C.
